According to patent US8338616B2, “Thiazoliums and their use for treating protein aging associated diseases” (Beijing Molecule Science And Technology Co., Ltd., priority 2008, dated 2012):
Where “and” joins values, the source holds several entries; their conditions need not be identical. Equal entries are not always repeated. Where two headings read alike, the source gives them in different places. Marks after values point to notes of the source that are not given here.

Assays:
[1] = system: NaCl treated diabetic rats modeled with heart failure; conditions: 10 weeks; for BNP: blood plasma
Description: Second batch: NaCl treated diabetic rats modeled with heart failure for 20 weeks and normal control rats synchronically and conventionally drinking water were divided into 5 groups: normal control rats synchronically and conventionally drinking water group (Normal Control), model control group (Model Control), the compound A group (ig, 9 mg/kg), the compound A group (ig, 36 mg/kg), administered with drug once per day for consecutive 10 weeks. The pharmacodynamic evaluation on left ventricular function was conducted by using a ventricular chatheterization method.
(§1) SPSS statistic software was used to analyze and treat data, and all data were expressed in mean±standard deviation (Mean±SD).

[2] = system: diabetic rats; conditions: for HR / LVEDP / LVSP / Neg dp/dt / Pos dp/dt: 4 weeks
Description: Rats were anesthetized with pentobarbital sodium injection (0.8%, 50 mg/kg), subjected to tracheal cannula, heparin anticoagulation, right common carotid artery cannula to left ventricle, communicated with Biopac physiological recorder via pressure transducers to record left ventricular pressure tracing, and the software of Biopac (Acknowledge, Version 3) was used for real-time reacording: heart rate, left ventricular systolic pressure peak (LVSP), maximum rate of change of left intraventricular pressure (±dp/dtmax), left ventricular end diastolic pressure (LVEDP). After 10 min of postoperative stabilization, the above parameters were recorded continuously, and mean values for 30 s were used as the measured values of these parameters.

[3] = system: long-term diabetic rats
[4] = system: NaCl treated diabetic rats modeled with heart failure; assay: Chronic heart failure, first batch, ultrasonic cardiogram evaluation; type: in vivo, rat; conditions: valsartan 10 mg/kg, compound A 18 mg/kg ig
Description: The pharmacodynamic evaluation was conducted by using a noninvasive ultrasonic cardiogram method.
Evaluation indexes: (1) morphology indexes: left ventricular posterior wall dimensions (LVPWd), left ventricular diastasis internal diameter (LVDd), end systolic diameter (LVDs); (2) functional indexes: ejection fraction (EF), shortening fraction (FS), ventricular early blood flow filling rate (E), atrial filling rate (A) and ratio of E/A; Doppler tissue image; at cardiac apical four chamber view, the valve ring of anterior mitral valve was used as sampling point, peak early diastolic velocity (Ea peak), peak late diastolic velocity (Aa peak), and Ea/Aa ratio reflected the systolic and diastolic motion of the whole left ventricle.
as §1

[5] = system: left ventricular cardiac muscle collagen of diabetic rats; conditions: printed for the group of A 18 mg/kg (three values), diabetic model 42.8±4.3, sodium
Description: After the end of vascular compliance experiment, the heart of each of rats was taken, trimmed to remove heart auricle and right ventricle and remain only left ventricle, the trimmed tissue block was planced in a mortar, added with a small amount of liquid nitrogen and ground rapidly, added with a small amount of liquid nitrogen again when the tissue became soft and ground continuously to form a fine powder, and stored at −70° C. for standby use. About 100 mg of cardiac muscle was weighed, added with 1 ml 200 μg/ml pepsin (solvent: 0.5 mol/L acetic acid), shaken at 37 ° C. for 2 h and 24 h, respectively, centrifuged at 40000 g for 60 min, the supernatants of pepsin digestion solutions for 2 h and 24 h were separately taken, hydrolyzed and measured to determine hydroxyproline contents (the methods for hydrolysis and measurement are the same as aforementioned). The dissolubility of cardiac muscle collagen is calculated by the following formula: […]

[6] = system: diabetic-hypertension rats
Description: The experiment about influence of AGEs breaker on hypotensive effect of nifedipine was performed on a diabetic-hypertension rat model. […] During the experiment, the animals took food freely, and were not interfered with any hypoglycemic drugs or hypotensive drugs.
The compound A was dissolved in distilled water, ready for use. Rats were randomly grouped as diabetic-hypertension control (DM-HTN) group and A (18 mg/kg) group. The drug was introgastrically administered once per day, and an equal amount of distilled water was administered in the diabetic-hypertension control group, for consecutive 4 weeks. After the end of experiment, blood samples were taken, thoracic aorta, liver, kidney were stored at −70° C. for standby use, and used for assays for tissue biochemical indicators and gene expression. Another part of kidney was fixed with 4% paraformaldehyde and used for pathological staining.
Nifedipine powder was formulated with DMSO to form a 5 mg/ml solution, then diluted with 15% ethanol-10% DMSO-25% PEG400 to form a 500 μg/ml solution, and diluted again to form 125 μg/ml, 62.5 μg/ml, 31.25 μg/ml, 15.62 μg/ml, 7.8 μg/ml solutions.
Rats were anesthetized with urethane-chloralose mixture by i.p., subjected to heparin anticoagulation, right common carotid artery cannula, communicated with
Biopac physiological recorder via pressure transducers. Through a right femoral vein remaining needle, nifedipine solutions were injected slowly by 5 batches in an order of concentrations from low to high, and arterial systolic pressure, diastolic pressure, pulse pressure and heart rate change were recorded continuously.

[7] = diabetic-hypertension rats, A 18 mg/kg intragastric once per day, 4 weeks

## Cc1csc[n+]1CC(=O)O.[Na+] [A, 3-carboxymethyl-4-methyl-thiazolium bromide sodium]
[1]; 9 mg/kg ig
  Heart rate: 418.3 ± 27.2 Beats/min
  LVEDP: 11.6 ± 2.9^d mmHg
  LVSP: 187.6 ± 22.3 mmHg
  Neg dp/pt: 10729 ± 2035^d mmHg/s
  Pos dp/pt: 10729 ± 2035^d mmHg/s
  BNP: 50.8 ± 5.7 pg/mL
[1]; 36 mg/kg ig
  Heart rate: 406.1 ± 32.9 Beats/min
  LVEDP: 13.0 ± 6.1^d mmHg
  LVSP: 189.2 ± 13.8 mmHg
  Neg dp/pt: 10033 ± 2044^d mmHg/s
  Pos dp/pt: 10033 ± 2044^d mmHg/s
  BNP: 51.3 ± 8.1 pg/mL
[2]; 9 mg/kg i.g.
  HR: 361.80 ± 39.74 beat/min
  LVEDP: 5.73 ± 1.44 mmHg
  LVSP: 161.54 ± 13.98 mmHg
  Neg dp/dt: 7762.8 ± 320.2 mmHg/s
  Pos dp/dt: 12201.2 ± 1872.2 mmHg/s
[2]; 18 mg/kg i.g.
  HR: 377.35 ± 17.54 beat/min
  LVEDP: 6.87 ± 1.26 mmHg
  LVSP: 170.65 ± 8.94 mmHg
  Neg dp/dt: 7660.8 ± 1154.8 mmHg/s
  Pos dp/dt: 11712.8 ± 1370.9 mmHg/s
[2]; 36 mg/kg i.g.
  HR: 368.99 ± 31.66 beat/min
  LVEDP: 6.79 ± 2.47 mmHg
  LVSP: 168.25 ± 15.48 mmHg
  Neg dp/dt: 7675.4 ± 2216.6 mmHg/s
  Pos dp/dt: 11425.3 ± 1660.0 mmHg/s
[2]; 4 weeks of administration
  effect on left ventricular functions: significant effect in improving left ventricular functions
[3]
  AGEs fluorescence content in aorta, left ventricular cardiac muscle and kidney: significantly decreasing
[4]; 10th week of administration (30th week of modeling), model control 2.5±0.31
  E/A ratio: 1.32±0.31
[4]; 10th week of administration
  Ea/Aa ratio vs model: increased significantly
  LVDd and LVDs vs model: slight decrease
  PWd vs model: slight increase
[4]; 16th week of administration (36th week of modeling), model control 2.5±0.52
  E/A ratio: 1.45±0.18
[5]
  cardiac muscle collagen dissolubility: 54.7±11.0% and 53.7±11.9% and 57.7±7.3%
[6]; [7]
  DBP: 144.2 ± 11.1 mmHg
  HR: 408.7 ± 35.7 beat/min
  MBP: 153.5 ± 13.7 mmHg
  PP: 22.9 ± 3.8 mmHg
  SBP: 166.6 ± 12.4 mmHg
[6]; diabetic-hypertension rats, compound A for 4 weeks
  change in heart rate and blood pressure: no significant change
[6]; fourth dosage of nifedipine (62.5 μg/ml) i.v., after 4 weeks of A 18 mg/kg, model group 18.92±10.54
  hypotensive extent of nifedipine: 29.99±9.06 mmHg
[6]; from second dosage of nifedipine (15.62 μg/ml), after 4 weeks of A 18 mg/kg
  hypotensive effect of nifedipine vs diabetic-hypertension model group: increased hypotensive effect
[6]; third dosage of nifedipine (31.25 μg/ml) i.v., after 4 weeks of A 18 mg/kg, model group 9.35±6.46
  hypotensive extent of nifedipine: 19.49±13.29 mmHg
